In ChEMBL document CHEMBL1201862, “PubChem BioAssay data set” (2004) one finds IC50 data, which are given here for two compounds.

The structures appear in SMILES notation. Activity calls are given as the source filed them. No stated cut-off is given here; in the data, actives have a measured IC50 and inactives only a lower limit.

In this assay the target is Envelope glycoprotein gp160 (Human immunodeficiency virus 1, UniProt Q6QLK5). The assay is described as follows: inhibitors of HIV fusion peptide binding, primary screen, biochemical, uHTS, fluorescence dequenching (AID 1986).
Chain of Envelope glycoprotein gp160 (Q6QLK5 whole entry, the tested form may be a part): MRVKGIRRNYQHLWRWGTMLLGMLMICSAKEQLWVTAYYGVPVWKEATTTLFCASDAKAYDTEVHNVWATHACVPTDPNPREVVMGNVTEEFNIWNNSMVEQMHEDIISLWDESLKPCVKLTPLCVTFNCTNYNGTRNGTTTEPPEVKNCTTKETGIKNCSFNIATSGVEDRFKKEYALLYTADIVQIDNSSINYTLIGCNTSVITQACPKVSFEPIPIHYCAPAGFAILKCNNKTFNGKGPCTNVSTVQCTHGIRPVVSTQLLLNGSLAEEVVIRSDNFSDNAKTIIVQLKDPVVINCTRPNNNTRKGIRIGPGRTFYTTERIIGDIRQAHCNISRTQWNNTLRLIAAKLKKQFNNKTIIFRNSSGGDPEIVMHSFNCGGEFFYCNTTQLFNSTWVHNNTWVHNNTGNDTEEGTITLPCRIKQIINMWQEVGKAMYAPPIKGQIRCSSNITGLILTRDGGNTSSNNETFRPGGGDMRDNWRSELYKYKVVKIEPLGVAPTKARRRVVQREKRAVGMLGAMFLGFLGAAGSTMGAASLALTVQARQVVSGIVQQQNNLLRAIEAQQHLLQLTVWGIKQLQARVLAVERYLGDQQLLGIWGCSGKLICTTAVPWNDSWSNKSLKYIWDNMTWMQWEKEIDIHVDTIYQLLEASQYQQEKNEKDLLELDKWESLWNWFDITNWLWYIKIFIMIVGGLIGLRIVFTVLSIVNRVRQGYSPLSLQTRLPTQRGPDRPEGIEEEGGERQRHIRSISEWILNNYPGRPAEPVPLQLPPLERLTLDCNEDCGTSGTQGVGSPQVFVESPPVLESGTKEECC

Usually IC50 stands for the concentration needed to halve the response being measured. In the case of `O=C(O)CN1C(=O)/C(=C\c2cc(Br)ccc2OCc2ccccc2F)SC1=S`, the 50% inhibitory concentration (IC50) is 10.9 µM (active).
The figure for `O=C(N/N=C/c1cc(Cl)cc([N+](=O)[O-])c1O)NC12CC3CC(CC(C3)C1)C2` is 23.2 µM (active).
